Results as given in publication PMC10248798, “Arabidopsis nicotianamine synthases comprise a common core-NAS domain fused to a variable autoinhibitory C terminus” (The Journal of Biological Chemistry, 2023).

What was measured:
Type in all cases: biochemical
MetK = target: T1, MetK (Escherichia coli, UniProt P0A817); experiment: one-pot coupled synthesis of nicotianamine with MtnN and AtNAS1; conditions: coupled to AtNAS1 and MtnN
T1 construct: full length, C-terminal His6 tag (pET-21b), Ni-NTA purified from E. coli
T1 sequence (P0A817 2-384): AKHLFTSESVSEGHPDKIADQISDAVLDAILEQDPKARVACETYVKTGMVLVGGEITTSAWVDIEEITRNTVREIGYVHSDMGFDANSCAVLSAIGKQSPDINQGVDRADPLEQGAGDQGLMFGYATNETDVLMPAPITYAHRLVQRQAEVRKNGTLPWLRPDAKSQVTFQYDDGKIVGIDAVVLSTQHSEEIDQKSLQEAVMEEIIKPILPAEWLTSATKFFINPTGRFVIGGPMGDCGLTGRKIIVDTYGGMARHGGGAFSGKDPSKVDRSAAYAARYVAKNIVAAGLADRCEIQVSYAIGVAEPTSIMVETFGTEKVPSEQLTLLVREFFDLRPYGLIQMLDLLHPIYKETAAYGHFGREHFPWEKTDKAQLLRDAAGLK

MtnN = target: T2, MtnN (Escherichia coli, UniProt P0AF12); experiment: TLC; conditions: 2.5 mM MTA, 50 mM Tris/HCl pH 8.7, 30 °C
T2 construct: full length, C-terminal His6 tag (pET-21b), Ni-NTA purified from E. coli
T2 sequence (P0AF12 whole entry): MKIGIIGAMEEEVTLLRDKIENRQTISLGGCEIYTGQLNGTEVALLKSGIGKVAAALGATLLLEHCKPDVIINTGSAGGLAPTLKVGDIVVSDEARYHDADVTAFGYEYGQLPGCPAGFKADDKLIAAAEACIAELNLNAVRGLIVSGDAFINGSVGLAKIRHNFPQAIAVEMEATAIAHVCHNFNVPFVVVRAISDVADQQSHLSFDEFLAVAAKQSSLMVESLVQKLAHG

AtNAS4 ΔC47 = target: T3, AtNAS4 ΔC47 (Arabidopsis thaliana, UniProt Q9C7X5); experiment: coupled spectrophotometric assay (MtnN/AdeD, A265); conditions: 0.125 mM SAM, 50 mM Tris-HCl pH 8.7, 37 °C
T3 construct: gene NAS4; core-NAS domain, 47 C-terminal residues removed, C-terminal His6 tag (pET-21b), E. coli
T3 sequence (Q9C7X5 1-277): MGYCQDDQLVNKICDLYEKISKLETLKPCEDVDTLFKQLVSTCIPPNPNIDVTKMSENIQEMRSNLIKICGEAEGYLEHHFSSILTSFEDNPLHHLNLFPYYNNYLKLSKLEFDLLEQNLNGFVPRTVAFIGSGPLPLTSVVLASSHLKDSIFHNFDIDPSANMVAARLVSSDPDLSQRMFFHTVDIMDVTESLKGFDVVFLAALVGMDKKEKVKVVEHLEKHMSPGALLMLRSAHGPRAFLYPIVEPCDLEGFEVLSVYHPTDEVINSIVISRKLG

AtNAS3 ΔC42 = target: T4, AtNAS3 ΔC42 (Arabidopsis thaliana, UniProt O80483); experiment: coupled spectrophotometric assay (MtnN/AdeD, A265); conditions: 0.125 mM SAM, 50 mM Tris-HCl pH 8.7, 37 °C
T4 construct: gene NAS3; core-NAS domain, 42 C-terminal residues removed, C-terminal His6 tag (pET-21b, NheI/NotI), E. coli
T4 sequence (O80483 1-278): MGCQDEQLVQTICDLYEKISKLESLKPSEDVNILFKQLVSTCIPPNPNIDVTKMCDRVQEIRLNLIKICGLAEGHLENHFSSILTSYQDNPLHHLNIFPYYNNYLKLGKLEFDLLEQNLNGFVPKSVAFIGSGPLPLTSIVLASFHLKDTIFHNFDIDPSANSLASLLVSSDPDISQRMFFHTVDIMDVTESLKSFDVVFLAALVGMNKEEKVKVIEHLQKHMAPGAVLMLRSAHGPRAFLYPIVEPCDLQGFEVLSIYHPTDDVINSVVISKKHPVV

AdeD = target: T5, AdeD (Escherichia coli, UniProt P31441); experiment: TLC; conditions: 3 mM adenine, 50 mM Tris/HCl pH 8.7, 30 °C
T5 construct: gene ade; full length, C-terminal His6 tag (pET-21b), Ni-NTA purified from E. coli
T5 sequence (P31441 whole entry): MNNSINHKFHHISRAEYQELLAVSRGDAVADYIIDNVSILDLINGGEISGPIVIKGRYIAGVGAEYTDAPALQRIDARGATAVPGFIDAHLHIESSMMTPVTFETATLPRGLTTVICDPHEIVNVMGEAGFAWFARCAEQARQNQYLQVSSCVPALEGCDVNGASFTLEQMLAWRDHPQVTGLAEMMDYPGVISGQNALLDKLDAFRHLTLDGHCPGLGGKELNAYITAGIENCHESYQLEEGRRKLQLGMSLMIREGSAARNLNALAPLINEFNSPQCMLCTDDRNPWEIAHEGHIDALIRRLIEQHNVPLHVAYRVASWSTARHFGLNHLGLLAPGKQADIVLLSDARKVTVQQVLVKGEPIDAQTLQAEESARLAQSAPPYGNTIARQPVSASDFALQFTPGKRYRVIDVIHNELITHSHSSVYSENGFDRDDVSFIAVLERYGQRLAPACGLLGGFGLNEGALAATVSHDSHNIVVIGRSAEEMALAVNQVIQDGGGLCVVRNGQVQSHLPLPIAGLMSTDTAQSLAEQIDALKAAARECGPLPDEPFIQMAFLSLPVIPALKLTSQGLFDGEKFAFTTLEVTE

Q: For Nc1ncnc2c1ncn2[C@@H]1O[C@H](COP(=O)(O)OP(=O)(O)OP(=O)(O)O)[C@@H](O)[C@H]1O [ATP], which “one-pot coupled synthesis of nicotianamine with MtnN and AtNAS1” value (MetK; co-substrate L-methionine) is on record?
A: The value was “we combined MetK with MtnN and AtNAS1 for the one-pot synthesis of NA from ATP”.

Q: With CSCC[C@H](N)C(=O)O [L-methionine] as the compound, how does the “one-pot coupled synthesis of nicotianamine with MtnN and AtNAS1” value (MetK; co-substrate ATP) read?
A: The value was “we combined MetK with MtnN and AtNAS1 for the one-pot synthesis of NA from ATP”.

Q: For CSC[C@H]1O[C@@H](n2cnc3c(N)ncnc32)[C@H](O)[C@@H]1O [MTA], which TLC (MtnN) is on record?
A: The TLC was “MtnN- and AdeD, were active in NAS reaction buffer when assayed individually with their respective substrates”.

Q: How did the “coupled spectrophotometric assay (MtnN/AdeD, A265)” value (AtNAS4 ΔC47) turn out when C[S+](CC[C@H](N)C(=O)O)C[C@H]1O[C@@H](n2cnc3c(N)ncnc32)[C@H](O)[C@@H]1O (stereo partly drawn) [SAM] was run?
A: Its value is “The truncated variants of AtNAS3 and AtNAS4 also showed strongly increased activities”.

Q: What about the “coupled spectrophotometric assay (MtnN/AdeD, A265)” value (AtNAS3 ΔC42) of the same compound?
A: The value was “The truncated variants of AtNAS3 and AtNAS4 also showed strongly increased activities”.

Q: How did the TLC (AdeD) turn out when Nc1ncnc2[nH]cnc12 [adenine] was run?
A: Its TLC is “MtnN- and AdeD, were active in NAS reaction buffer when assayed individually with their respective substrates”.
